Source: patent publication US9034863B2, “Compositions and methods for inhibiting entry of a hepatic virus” (The Board of Trustees of the University of Illinois, priority 2008, dated 2015)

How the values were obtained:
Assay type in all cases: cell-based, Hepatitis C virus (HCV)
[1] = test system: HCV genotype 2a subgenomic replicon; experiment: HCV sg2a replicon RNA replication in Huh7 cells, RT-qPCR; details: 72 hours post-treatment
Description: Huh7 cells, also known as Huh7/scr cells, are well-known in the art (Zhong, et al. (2005) Proc. Natl. Acad. Sci. USA 102, 9294-99; Gastaminza, et al. (2006) J. Virol. 80:11074-81; Zhong, et al. (2006) J. Virol. 80:11082-93; Sainz et al. (2009) PLoS ONE 4:e6561). […] The HCV sg2a replicon was established as previously described (Uprichard, et al. (2006) Virol. J. 3:89). Briefly the HCV genotype 2a subgenomic replicon RNA (psgJFH1; Kato, et al. (2003) Gastroenterology 125:1808-17) was XbaI linearized, in vitro transcribed using […] T7 (Ambion, Austin, Tex.) and transfected into cells using a modified electroporation protocol (Krieger, et al. (2001) J. Virol. 75(10):4614-24). All cells were cultured in complete Dulbecco's modified Eagle's medium (cDMEM) (Hyclone, Logan, Utah) supplemented with 10% fetal bovine serum (FBS) (Hyclone), 100 units/ml penicillin, […] streptomycin, and 2 mM L-glutamine (Gibco Invitrogen, Carlsbad, Calif.) and 500 μg/ml geneticin ((Invitrogen) for HCV replicon cells only).
(§1) Total cellular RNA was purified using an ABI PRISM™ 6100 Nucleic Acid PrepStation (Applied Biosystems), as per the manufacturer's instructions. […] HCV JFH-1 and human GAPDH RNA transcript levels were determined relative to a standard curve derived from serial dilutions of plasmid containing the JFH-1 HCV cDNA or the human GAPDH coding sequence, respectively. […]

HCVcc = experiment: HCV foci reduction assay, acute HCVcc infection of Huh7 cells; details: added pre-, co- or post-infection
[2] = test system: HCV genotype 1b subgenomic replicon; experiment: HCV sg1b replicon RNA replication in Huh7 cells, RT-qPCR; details: 72 hours post-treatment
HCV-JFH-1 = experiment: Chronic HCV-JFH-1 infection of Huh7-1 cells, inhibitor combinations, RT-qPCR 24-96 h (FIG. 3-5); details: for reduction of HCV levels (FIG. 3): PI 200 nM; for reduction of HCV levels (FIG. 3) / decrease in intracellular HCV load (FIG. 4B): IFN-α 100 U/ml; for decrease in intracellular HCV load (FIG. 4B): ferristatin 50 μM
Method: RT-qPCR analysis of intracellular HCV RNA levels in Huh7 cultures mock-treated, treated with ezetimibe (30 μM), PI (200 nM), IFN-α (100 U/ml), or indicated combinations thereof (n=3). Data presented are representative of multiple independent experiments.
FIG. 4A, Chronically infected Huh7-1 cell cultures (n=3) treated with ezetimibe (E), naringenin (N), interferon α (I), or combinations thereof, were harvested at 24, 48, 72 or 96 hours post-treatment, intracellular HCV levels were quantified by RT-qPCR, and are presented as HCV copies/μg RNA. FIG. 4B, Chronically infected Huh7-1 cell cultures (n=3) treated with ezetimibe (E), ferristatin (T), interferon α (I), or combinations thereof, were harvested at 24, 48, 72 or 96 hours post-treatment, intracellular HCV levels were quantified by RT-qPCR, and are presented as HCV copies/μg RNA.
Shown are the results of RT-qPCR analysis of intracellular HCV RNA levels in Huh7 cultures mock-treated, treated with ezetimibe (30 μM), polymerase inhibitor, RG7128 (1 μM), or a combination thereof (n=3).
For experiments analyzing the activity of ezetimibe in combination with a protease inhibitor, Huh7-1 cells were infected with HCV-JFH-1 and allowed to reach steady state levels of infection. The HCV-infected cells were seeded in a 96-well plate and treated with the following: medium alone, 30 μM ezetimibe, 200 nM ITMN5537, 100 μ/ml IFN-α, and combinations of the above drugs at the specified concentrations. Medium and drugs were replaced every 24 hours. Triplicate wells were harvested at 24, 48, 72 or 96 hours post-treatment, in 200 μl/well of 1×ABI lysis buffer and stored at −80° C. until RNA extraction.
Therefore, the therapeutic potential of an IFN-free antiviral cocktail was also investigated, using ezetimibe in combination with other direct acting inhibitors of HCV amplification, specifically an inhibitor of the HCV NS3/4A protease (ITMN 5537; Intermune, Brisbane, Calif.). Huh7-1 cells were infected with HCV-JFH-1 and allowed to reach steady state levels of infection. Cells were monotreated with protease inhibitor (PI) or ezetimibe or IFN alone or treated with combinations of PI+ezetimibe or PI+IFN or IFN+ezetimibe or a combination of all three inhibitors. Samples were harvested at 24, 48, 72 or 96 hours post-treatment, the intracellular RNA was extracted and RT-qPCR performed to quantify HCV copies.
Thus, parallel cultures of chronically infected Huh7-1 cells were established and subsequently treated with ezetimibe, naringenin or IFN-α, either alone or in combination. Treatments were replenished every 24 hours. Triplicate cultures of each treatment condition were harvested at 24, 48, 72 or 96 hours post-treatment and intracellular HCV levels were quantified by RT-qPCR (FIG. 4A). […] Thus, no evidence of synergy was observed when IFN-α was combined with an egress inhibitor that only blocks cell-free spread.
As an alternative method of determining the therapeutic importance of inhibiting HCV cell-to-cell spread, an inhibitor to TfR1 was used. TfR1 has also been identified as another host cell factor that is involved in cell-free entry of HCV into cells, but is not required for cell-to-cell-mediated HCV entry. Thus, unlike ezetimibe which inhibits both cell-free and cell-to-cell HCV spread, the TfR1 inhibitor, ferristatin, only blocks cell-free virus spread. Again, chronically infected Huh7-1 cell cultures were established and treated with ezetimibe (30 μM), ferristatin (50 μM), or IFN-α (100 U/ml), either alone or in combination and treatments were replenished every 24 hours. Intracellular HCV copies were quantified from triplicate cultures by RT-qPCR at 24, 48, 72 or 96 hours post-treatment (FIG. 4B).
Huh7-1 cells were infected with HCV-JFH-1 and allowed to reach steady state levels of infection. Cells were monotreated with HCV polymerase inhibitor RG7128 (1 μM) or ezetimibe (30 μM) alone or treated with a combination of RG7128 and ezetimibe. […]

HCVcc JFH-1 = experiment: Chronic HCVcc infection in growing Huh7 cells, long-term treatment, RT-qPCR (FIG. 2)
Method: Cultures of growing Huh7 cells were inoculated with HCVcc JFH-1 at an MOT of 0.01 FFU/cell. Infected cultures were maintained for an additional 10 days to allow HCV RNA to reach steady-state levels. FIG. 2A, Cultures were mock treated, treated with ezetimibe alone (30 μM), IFN-α (100 U/ml) alone, or ezetimibe (30 μM) plus IFN-α (100 U/ml) in combination. Treatments were maintained as cultures were passaged. FIG. 2B, After 70 days IFN-α or combination ezetimibe plus IFN-α treatment, treatment was either continued (open shapes) or discontinued (filled shapes). […] Results are graphed as means±s.e.m. for triplicate samples. The data presented are representative of two independent experiments.
For experiments in growing cells, Huh7 cells seeded at 1×10^6 cells in a T75 cell culture flask (Corning) were infected with JFH-1 HCVcc at a MOI of 0.01 FFU/cell and subsequently cultured for 10 days to allow HCV RNA to reach steady-state levels. On day 10 post-infection, cells were split 1:4 and re-plated into T25 culture flasks (Corning). Twenty four hours post seeding, individual flasks were mock-treated with cDMEM or treated with cDMEM containing IFN-α (100 U/ml), ezetimibe (30 μM) or a combination of both IFN-α (100 U/ml) and ezetimibe (30 μM). Throughout the course of the experiment, fresh media with treatments was replenished every two days and cells were trypsinized just before reaching confluence and re-plated at a dilution of 1:3 to maintain active cell growth. […]
as §1
To confirm HCV clearance, drug treatments were subsequently discontinued on day 70 and HCV RNA levels were monitored for an additional 30 days.

Compound: CC[C@H](C)C(=O)O[C@H]1C[C@@H](C)C=C2C=C[C@H](C)[C@H](CC[C@@H]3C[C@@H](O)CC(=O)O3)[C@H]21 [Lovastatin]
- sg2a HCV RNA levels [1]: had no affect
- inhibition of HCVcc foci formation (HCVcc): had no affect
- reduction of sg1b RNA levels [2]: 22 fold

Compound: CC(C)(C)OC(=O)N[C@H]1CCCCC/C=C\[C@@H]2C[C@@]2(C(=O)NS(=O)(=O)C2(C)CC2)NC(=O)[C@@H]2C[C@@H](OC(=O)N3Cc4cccc(F)c4C3)CN2C1=O [PI]
- reduction of HCV levels (FIG. 3) (HCV-JFH-1; ezetimibe 30 μM): less than a log

Compound: CC(C)C(=O)OC[C@H]1O[C@@H](n2ccc(N)nc2=O)[C@](C)(F)[C@@H]1OC(=O)C(C)C [RG7128]
- reduction of HCV levels (FIG. 5) (HCV-JFH-1; RG7128 1 μM, ezetimibe 30 μM, normalized to Mock): less than a log

Compound: Cc1[n-]n(-c2ccc(S(=O)(=O)O)cc2)c(=O)c1N=Nc1ccc(-c2ccc(N=Nc3ccc4c(S(=O)(=O)O)cc(S(=O)(=O)O)c(N)c4c3[O-])c([O-])c2)cc1[O-].[Cu+2].[Cu+2] [ferristatin]
- decrease in intracellular HCV load (FIG. 4B) (HCV-JFH-1; ezetimibe 30 μM): neither ezetimibe nor ferristatin alone reduced intracellular HCV load

Compound: IFN-α
- reduction of HCV levels (FIG. 3) (HCV-JFH-1; ezetimibe 30 μM): a log
- decrease in intracellular HCV load (FIG. 4B) (HCV-JFH-1; ezetimibe 30 μM): a log decrease
- reduction of HCV copies (FIG. 4A) (HCV-JFH-1; ezetimibe, naringenin, IFN-α alone or in combination): a log decrease
- decrease in intracellular HCV RNA levels (HCVcc JFH-1; by day 32 post-treatment vs mock, IFN-α 100 U/ml, ezetimibe 30 μM): ~2 logs
- rebound in HCV RNA after treatment discontinued (HCVcc JFH-1; discontinued on day 70, monitored 30 days): immediate rebound
